For one series, the system named is COX isoform. Particulars: cited from earlier work.
Series [1] relates to FAAH. Particulars: cited from earlier work.
The test system of series [2] is acetic acid-induced abdominal stretching. Particulars: rats, 20 mg/kg i.p., cited from earlier work.
Another series has as its target T1, ovine COX-1 (Ovis aries, UniProt P05979).
T1 sequence (P05979 25-600): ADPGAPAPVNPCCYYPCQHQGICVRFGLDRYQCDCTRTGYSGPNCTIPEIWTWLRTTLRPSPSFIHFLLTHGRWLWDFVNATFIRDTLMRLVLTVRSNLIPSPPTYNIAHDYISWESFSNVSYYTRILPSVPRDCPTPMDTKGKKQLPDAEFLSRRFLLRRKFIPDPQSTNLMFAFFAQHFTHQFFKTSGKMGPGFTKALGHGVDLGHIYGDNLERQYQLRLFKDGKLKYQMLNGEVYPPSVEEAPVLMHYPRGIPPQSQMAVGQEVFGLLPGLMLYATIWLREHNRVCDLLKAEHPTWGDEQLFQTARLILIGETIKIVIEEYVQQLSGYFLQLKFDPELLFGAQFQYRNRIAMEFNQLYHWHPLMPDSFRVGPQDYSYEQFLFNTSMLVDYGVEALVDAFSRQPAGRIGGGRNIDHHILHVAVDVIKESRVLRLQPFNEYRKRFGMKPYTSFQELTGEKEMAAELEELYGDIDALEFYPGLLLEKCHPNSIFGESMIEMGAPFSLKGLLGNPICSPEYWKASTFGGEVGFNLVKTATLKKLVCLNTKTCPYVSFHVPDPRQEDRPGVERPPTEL
Kind of series: COX oxygen electrode assay, COX-1. Type of series: biochemical. Particulars: for Initial activity (% of vehicle control) COX-1 (AEA): substrate 10 μM.

The target of the next series is T2, human recombinant COX-2 (Homo sapiens, UniProt P35354).
T2 sequence (P35354 18-604): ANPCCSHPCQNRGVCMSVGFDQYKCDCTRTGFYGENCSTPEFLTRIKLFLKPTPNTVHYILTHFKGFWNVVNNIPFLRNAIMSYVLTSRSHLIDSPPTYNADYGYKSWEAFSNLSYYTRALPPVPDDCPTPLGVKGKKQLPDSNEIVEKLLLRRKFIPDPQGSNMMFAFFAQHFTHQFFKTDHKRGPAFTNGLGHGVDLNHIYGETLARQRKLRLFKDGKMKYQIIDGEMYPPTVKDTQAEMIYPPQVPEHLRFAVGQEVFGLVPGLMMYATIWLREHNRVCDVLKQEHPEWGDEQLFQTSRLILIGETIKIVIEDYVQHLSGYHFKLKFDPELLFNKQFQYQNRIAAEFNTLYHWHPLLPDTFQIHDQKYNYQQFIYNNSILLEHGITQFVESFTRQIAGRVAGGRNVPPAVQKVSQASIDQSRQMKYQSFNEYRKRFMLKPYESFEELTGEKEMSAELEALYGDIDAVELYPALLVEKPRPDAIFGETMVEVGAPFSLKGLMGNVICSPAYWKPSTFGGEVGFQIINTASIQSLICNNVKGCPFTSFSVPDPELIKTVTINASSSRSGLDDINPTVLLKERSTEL
In words: COX oxygen electrode assay, COX-2. Type of series: biochemical. Particulars: for Initial activity (% of vehicle control) COX-2 (AEA) / Initial activity (% of vehicle control) COX-2 (AA): vehicle EtOH; for Initial activity (% of vehicle control) COX-2 (AEA): substrate AEA 10 μM; for Initial activity (% of vehicle control) COX-2 (AA): substrate AA 10 μM.

Series [3] has as its system acetic acid-induced abdominal stretching. Particulars: mice, 10 and 30 mg/kg s.c.; cited from earlier work.
The conditions of series [4]: cited from earlier work.
Series [5] has as its system acetic acid-induced abdominal stretching (visceral nociception). Kind of series: Acetic acid-induced abdominal stretching test. Particulars: mice, 30 mg/kg s.c., 30 min before acetic acid. The format is in vivo.
The target in series [6] is T3, FAAH (Rattus norvegicus, UniProt P97612).
T3 sequence (P97612 1-579): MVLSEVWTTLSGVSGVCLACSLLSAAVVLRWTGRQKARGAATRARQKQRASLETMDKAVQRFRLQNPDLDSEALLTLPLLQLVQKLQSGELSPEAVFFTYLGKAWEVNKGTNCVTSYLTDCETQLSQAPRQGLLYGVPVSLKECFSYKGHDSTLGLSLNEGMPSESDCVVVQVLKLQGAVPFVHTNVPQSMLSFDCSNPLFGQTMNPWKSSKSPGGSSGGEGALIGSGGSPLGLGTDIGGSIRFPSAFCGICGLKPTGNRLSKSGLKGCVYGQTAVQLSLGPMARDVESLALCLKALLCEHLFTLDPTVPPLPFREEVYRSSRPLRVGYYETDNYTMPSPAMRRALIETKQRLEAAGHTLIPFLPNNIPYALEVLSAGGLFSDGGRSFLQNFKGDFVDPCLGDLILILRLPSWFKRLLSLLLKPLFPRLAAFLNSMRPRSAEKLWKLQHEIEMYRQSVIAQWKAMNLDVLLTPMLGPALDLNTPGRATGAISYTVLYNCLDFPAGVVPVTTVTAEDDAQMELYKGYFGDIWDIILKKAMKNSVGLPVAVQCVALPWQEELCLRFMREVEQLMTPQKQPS
In words: FAAH assay: hydrolysis of [3H]AEA by rat brain homogenates. The format is biochemical.

[7] abbreviates: read-out: inhibition of the cyclooxygenation of AA by COX-2.

“Also recorded” adds a separate entry of the source. Where two headings read alike, the source gives them in different places.

As a reminder, the IC50 is the midpoint of a concentration-inhibition curve. Regarding `CC(=O)Nc1ccc(OC(=O)C(C)c2ccc(Nc3ccnc(C(F)(F)F)c3)cc2)cc1` (centres unmarked) [4-acetamidophenyl 2-(4-(2-(trifluoromethyl)pyridin-4-ylamino)phenyl)propanoate, reference compound], in the series with COX isoform, the “inhibition of COX isoforms” value is listed as “did not inhibit either COX isoform”. In addition, the IC50 in the series on FAAH [1] (read-out: IC50 FAAH) was 0.1 µM.
In the case of `CC(C)Cc1ccc(C(C)C(=O)O)cc1` (centres unmarked) [Compound 1, Ibuprofen, reference compound], in series [2], the “activity in the acetic acid-induced abdominal stretching test” value is recorded as “significantly less effective than 20 mg/kg of 2”.
As a reminder, the inhibition is how much of the control response was suppressed. Consider `Cc1cccnc1NC(=O)C(C)c1ccc(CC(C)C)cc1` (centres unmarked) [Compound 2, N-(3-methylpyridin-2-yl)-2-(4′-isobutylphenyl)propionamide], for which the “COX isoform selectivity with AA as substrate” value on ovine COX-1 (AA as substrate, COX-1 vs COX-2) is “COX-1 selective”. In addition, the IC50 against ovine COX-1 (IC50 COX-1 (approximate), AA 10 μM as substrate, DMSO as vehicle) is roughly 240 µM; against ovine COX-1 (IC50 COX-1 (approximate), AA 10 μM as substrate, ethanol as vehicle) it was roughly 60 µM; at human recombinant COX-2, roughly 19 µM. In addition, the “Initial activity (% of vehicle control) COX-1 (AEA)” value was 106±15 (3) % of vehicle control on ovine COX-1 (vehicle DMSO, compound 20 μM); 82±4 (6) % of vehicle control at ovine COX-1 (vehicle DMSO, compound 50 μM); 63±6 (6) % of vehicle control on ovine COX-1 (vehicle DMSO, compound 100 μM); 59±8 (6) % of vehicle control at ovine COX-1 (vehicle DMSO, compound 200 μM); 36±0.9 (3) % of vehicle control on ovine COX-1 (vehicle DMSO, compound 400 μM); 70±6 (3) % of vehicle control at ovine COX-1 (vehicle EtOH, compound 20 μM). Also, the “Initial activity (% of vehicle control) COX-1 (AEA)” value is 57±0.6 (3) % of vehicle control at ovine COX-1 (vehicle EtOH, compound 50 μM); 45±8 (3) % of vehicle control on ovine COX-1 (vehicle EtOH, compound 100 μM); 14±4 (3) % of vehicle control on ovine COX-1 (vehicle EtOH, compound 200 μM). The inhibition at 300 µM on human recombinant COX-2 (setting [7]) turned out to be 41%. Moreover, the “Initial activity (% of vehicle control) COX-2 (AEA)” value on human recombinant COX-2 (compound 3 μM) is 111±15 (6) % of vehicle control; on human recombinant COX-2 (compound 10 μM), 77±10 (3) % of vehicle control; on human recombinant COX-2 (compound 20 μM), 51±17 (3) % of vehicle control; at human recombinant COX-2 (compound 50 μM), 0.7±9 (4) % of vehicle control. The “Initial activity (% of vehicle control) COX-2 (AA)” value at human recombinant COX-2 (compound 100 μM) is 88±8 (3) % of vehicle control; on human recombinant COX-2 (compound 300 μM), 59±4 (4) % of vehicle control. Besides, the “activity in the acetic acid-induced abdominal stretching test” value in series [2] (20 mg/kg) is “has analgesic activity; also recorded: significantly greater reduction in stretching than the same dose of 1”; in series [3], “has analgesic activity; also recorded: greater than for a dose of 10 mg/kg s.c. and for 30 mg/kg of diclofenac”. Moreover, the acute ulcerogenesis result in series [4] is “much lower than seen with 1”. Besides, the “mode of inhibition of FAAH” value with FAAH [1] is “acts non-competitively”. Further, in the series on FAAH [1], the “orders of magnitude more potent as an inhibitor of FAAH than ibuprofen” value is 2–3 orders of magnitude. For the same molecule, the “number of abdominal stretches elicited by acetic acid” value in [5] is given as “active in vivo; also recorded: decreased the number of abdominal stretches”. Also, the “fold more potent than 1 as an FAAH inhibitor” value at FAAH [6] is “approximately 250 fold”. Also, the “FAAH/COX-1 potency ratio, ratio for 1 set to unity” value at FAAH [6] (higher number = increased FAAH inhibitory potency relative to COX-1 potency) is reported as ~ 500. Also, the Max inhibition % at FAAH [6] (solvent DMSO) and at FAAH [6] (solvent EtOH) was 100% in each case.
At FAAH [6] (solvent EtOH), `Cc1cccnc1OC(=O)C(C)c1ccc(CC(C)C)cc1` (centres unmarked) [Compound 3, 3-methylpyridin-2-yl 2-(4-isobutylphenyl)propanoate] gave a Max inhibition % of 100%.
Take `Cc1cccnc1NC(=O)CNC(=O)C(C)c1ccc(CC(C)C)cc1` (centres unmarked) [Compound 9, 2-(4-Isobutylphenyl)-N-(2-(3-methylpyridin-2-ylamino)-2-oxoethyl)propanamide]: the half-maximal inhibitory concentration (IC50) at ovine COX-1 was roughly 50 µM; on human recombinant COX-2, roughly 10 µM. Moreover, the “Initial activity (% of vehicle control) COX-1 (AEA)” value at ovine COX-1 (vehicle EtOH, compound 20 μM) is listed as 76±8 (3) % of vehicle control; on ovine COX-1 (vehicle EtOH, compound 50 μM), 56±4 (3) % of vehicle control; on ovine COX-1 (vehicle EtOH, compound 100 μM) it was 23±4 (3) % of vehicle control. Moreover, at human recombinant COX-2 (setting [7]), the inhibition at 100 µM was determined as 18%. Besides, the figures for the “Initial activity (% of vehicle control) COX-2 (AEA)” value at human recombinant COX-2 (compound 3 μM) and at human recombinant COX-2 (compound 50 μM) were 83±8 (3) % of vehicle control and −11±4 (3) % of vehicle control, respectively. The “Initial activity (% of vehicle control) COX-2 (AA)” value at human recombinant COX-2 (compound 100 μM) was 82±5 (4) % of vehicle control.
At FAAH [6] (solvent EtOH), `Cc1cccc(NC(=O)CNC(=O)C(C)c2ccc(CC(C)C)cc2)n1` (centres unmarked) [Compound 10, 2-(4-Isobutylphenyl)-N-(2-(6-methylpyridin-2-ylamino)-2-oxoethyl)propanamide] displayed a Max inhibition % of 100%.
Take `Cc1cccnc1NC(=O)CCNC(=O)C(C)c1ccc(CC(C)C)cc1` (centres unmarked) [Compound 11, 2-(4-Isobutylphenyl)-N-(3-(3-methylpyridin-2-ylamino)-3-oxopropyl)propanamide]: the Max inhibition % at FAAH [6] (solvent DMSO) came to 90±3%.
Same read-out and setting: the result for `CC(C)Cc1ccc(C(C)C(=O)NCC(=O)NCc2ccccn2)cc1` (centres unmarked) [Compound 12, 2-(4-Isobutylphenyl)-N-(2-oxo-2-(pyridin-2-ylmethylamino)ethyl)propanamide] reads 100%; that for `CC(C)Cc1ccc(C(C)C(=O)NCC(=O)NCc2cccnc2)cc1` (centres unmarked) [Compound 13, 2-(4-Isobutylphenyl)-N-(2-oxo-2-(pyridin-3-ylmethylamino)ethyl)propanamide], 81±8%.

(Values after paper PMC3606911 (Journal of enzyme inhibition and medicinal chemistry, 2012).)
